Test results from patent US20260364184A1, “COMPOUND BASED ON OXOISOINDOLINYL-SUBSTITUTED TETRAHYDROPYRIMIDINE-DIONE AND USE THEREOF” (GLUETACS THERAPEUTICS (SHANGHAI) CO., LTD., priority 2023, published 2026).

Assays:
[1] = tested on: Human large cell immunoblastic lymphoma cell line SR; test: Inhibition of SR cell proliferation (CellTiter luminescent viability); type: cell-based; settings: Table IB1, ALK inhibitor-based, 96 hours, read-out: Inhibitory activity (IC50, nM) on tumor cell proliferation, SR
Method in brief: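 Cells are seeded in 96-well plates, cultured at 37 °C, 5% CO2, and treated next day with 5-fold serial compound dilutions (stock series from 2000 μM; 0.5 μL into 100 μL medium). Viability is read by CellTiter-Meiluncell luminescence after the set exposure, and IC50 is taken from growth-inhibition curves.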

ALK = molecular target: T1, ALK (Homo sapiens, UniProt Q9UM73); test: Western blot degradation of ALK; type: cell-based; settings: H2228 Cell; 24 hours
T1 construct: known EML4-ALK variant 3 fusion, ALK kinase part unmutated), Western blot
T1 sequence (Q9UM73 19-1620): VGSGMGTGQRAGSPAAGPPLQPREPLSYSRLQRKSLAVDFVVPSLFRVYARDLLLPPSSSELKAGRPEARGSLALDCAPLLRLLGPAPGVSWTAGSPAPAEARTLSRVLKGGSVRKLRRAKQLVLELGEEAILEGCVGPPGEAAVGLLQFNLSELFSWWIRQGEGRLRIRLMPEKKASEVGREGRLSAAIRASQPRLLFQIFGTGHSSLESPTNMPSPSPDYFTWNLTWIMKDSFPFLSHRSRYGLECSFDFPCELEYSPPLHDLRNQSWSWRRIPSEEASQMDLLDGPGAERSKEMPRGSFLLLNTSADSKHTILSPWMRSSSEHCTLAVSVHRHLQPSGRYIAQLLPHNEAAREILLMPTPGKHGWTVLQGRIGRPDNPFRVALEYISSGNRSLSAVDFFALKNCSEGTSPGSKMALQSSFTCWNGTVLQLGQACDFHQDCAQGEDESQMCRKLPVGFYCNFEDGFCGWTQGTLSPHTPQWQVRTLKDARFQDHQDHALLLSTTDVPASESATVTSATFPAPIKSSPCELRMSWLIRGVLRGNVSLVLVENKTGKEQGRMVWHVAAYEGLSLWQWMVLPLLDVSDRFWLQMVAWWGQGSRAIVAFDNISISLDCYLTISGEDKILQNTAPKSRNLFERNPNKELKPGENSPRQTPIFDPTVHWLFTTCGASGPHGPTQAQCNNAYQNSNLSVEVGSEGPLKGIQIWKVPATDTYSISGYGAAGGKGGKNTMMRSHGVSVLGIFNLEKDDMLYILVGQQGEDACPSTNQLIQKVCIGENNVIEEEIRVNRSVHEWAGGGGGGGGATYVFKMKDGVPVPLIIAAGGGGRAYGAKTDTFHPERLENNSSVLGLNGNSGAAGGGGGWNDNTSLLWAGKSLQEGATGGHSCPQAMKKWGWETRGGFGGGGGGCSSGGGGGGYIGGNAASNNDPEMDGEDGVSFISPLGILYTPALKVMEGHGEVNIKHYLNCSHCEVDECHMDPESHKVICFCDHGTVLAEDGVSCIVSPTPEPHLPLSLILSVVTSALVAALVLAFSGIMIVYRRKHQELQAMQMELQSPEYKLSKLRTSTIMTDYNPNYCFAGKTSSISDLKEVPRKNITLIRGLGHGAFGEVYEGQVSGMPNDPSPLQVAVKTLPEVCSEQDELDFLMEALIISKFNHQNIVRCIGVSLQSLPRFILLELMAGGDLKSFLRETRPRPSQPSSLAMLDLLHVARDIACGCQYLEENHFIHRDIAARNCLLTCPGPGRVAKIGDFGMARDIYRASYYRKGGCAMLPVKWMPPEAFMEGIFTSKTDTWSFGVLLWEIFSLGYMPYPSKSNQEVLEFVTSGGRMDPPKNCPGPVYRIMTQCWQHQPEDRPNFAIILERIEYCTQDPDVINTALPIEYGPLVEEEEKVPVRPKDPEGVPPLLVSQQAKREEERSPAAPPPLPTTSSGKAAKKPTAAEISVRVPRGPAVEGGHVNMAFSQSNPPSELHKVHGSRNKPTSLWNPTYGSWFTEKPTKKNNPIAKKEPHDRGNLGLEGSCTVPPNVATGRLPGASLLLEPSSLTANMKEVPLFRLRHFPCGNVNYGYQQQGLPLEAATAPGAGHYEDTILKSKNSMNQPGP
T1 sequence (Q96SW2 whole entry partner, the tested form may be a part): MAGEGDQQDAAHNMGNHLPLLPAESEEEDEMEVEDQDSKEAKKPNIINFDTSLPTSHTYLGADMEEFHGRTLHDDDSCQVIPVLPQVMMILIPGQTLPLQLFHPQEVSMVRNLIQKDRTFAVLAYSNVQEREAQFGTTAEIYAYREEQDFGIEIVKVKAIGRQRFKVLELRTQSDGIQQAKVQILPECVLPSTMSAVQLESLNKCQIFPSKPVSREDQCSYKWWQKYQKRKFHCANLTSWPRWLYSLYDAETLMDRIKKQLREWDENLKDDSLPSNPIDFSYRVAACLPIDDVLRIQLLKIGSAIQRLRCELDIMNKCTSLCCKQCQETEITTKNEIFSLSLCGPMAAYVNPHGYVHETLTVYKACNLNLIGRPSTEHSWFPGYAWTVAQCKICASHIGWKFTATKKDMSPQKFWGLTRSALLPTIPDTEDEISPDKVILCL
Protocol: Conventional Western blot assay was performed to evaluate the effects of the compounds of the present disclosure on the expression of target proteins in cells.
(1) Cell Seeding and Protein Harvesting: The selected cells were processed according to the cell seeding procedure and protein harvesting procedure in Table II-2.
(2) To the collected supernatant, 5×SDS sample loading buffer was added, followed by denaturation at 95 °C for 5 minutes. The denatured samples were then separated by SDS-PAGE electrophoresis on a polyacrylamide gel. Proteins were transferred to a nitrocellulose membrane (0.45 μm NC membrane), blocked with blocking buffer at room temperature for 1 hour, and subjected to antibody incubation and development procedures according to the antibody manufacturer's instructions (Cell Signaling Technology).
Half-Maximal Degradation Concentration value (the drug concentration required for degrading proteins by 50%, abbreviated as DC50) reads method: comparing the grayscale values of Western blot bands from drug-treated samples with those from blank DMSO-treated controls, and identifying the drug concentration range at which the grayscale value is half that of the DMSO-treated control bands.
DC50 values can be calculated using ImageJ software to measure grayscale values of Western blot bands from drug-treated samples. The concentration-response curve is fitted to estimate the drug concentration corresponding to half the grayscale value.
Target protein remaining (%) refers to the percentage of target protein remaining in cells after treatment with protein degrader compounds.
Calculation method for target protein remaining (%): Use ImageJ software to measure grayscale values of Western blot bands from drug (protein degrader)-treated samples. The grayscale value of drug-treated bands is divided by that of internal control protein bands, and the resulting quotient is normalized to obtain the relative percentage of remaining target protein after protein degrader treatment.
Target protein degradation rate (%)=1−target protein remaining (%).

Structure (SMILES)	IC50 [1]	Degradation of substrate protein ALK (substrate protein remaining %) (ALK)
CCc1cc2c(cc1N1CCC(N3CCN(CC4CCN(c5ccc6c(c5)C(=O)N(N5CCC(=O)NC5=O)C6=O)CC4)CC3)CC1)C(C)(C)c1[nH]c3cc(C#N)ccc3c1C2=O [GT-06823, 8-(4-(4-((1-(2-(2,4-dioxotetrahydropyrimidin-1(2H)-yl)-1,3-dioxoisoindolin-5-yl)piperidin-4-yl)methyl)piperazin-1-yl)piperidin-1-yl)-9-ethyl-6,6-dimethyl-11-oxo-6,11-dihydro-5H-benzo[b]carbazole-3-carbonitrile]	10 to 50 nM	A (0%≤substrate protein remaining %≤80%)
CCc1cc2c(cc1N1CCC(N3CCN(CC4CCN(c5cccc6c5C(=O)N(N5CCC(=O)NC5=O)C6=O)CC4)CC3)CC1)C(C)(C)c1[nH]c3cc(C#N)ccc3c1C2=O [GT-07298, 8-(4-(4-((1-(2-(2,4-dioxotetrahydropyrimidin-1(2H)-yl)-1,3-dioxoisoindolin-4-yl)piperidin-4-yl)methyl)piperazin-1-yl)piperidin-1-yl)-9-ethyl-6,6-dimethyl-11-oxo-6,11-dihydro-5H-benzo[b]carbazole-3-carbonitrile]	10 to 50 nM	A (0%≤substrate protein remaining %≤80%)
CCc1cc2c(cc1N1CCN(Cc3ccc4c(c3)C(=O)N(N3CCC(=O)NC3=O)C4=O)CC1)C(C)(C)c1[nH]c3cc(C#N)ccc3c1C2=O [GT-07320, 8-(4-((2-(2,4-dioxotetrahydropyrimidin-1(2H)-yl)-1,3-dioxoisoindolin-5-yl)methyl)piperazin-1-yl)-9-ethyl-6,6-dimethyl-11-oxo-6,11-dihydro-5H-benzo[b]carbazole-3-carbonitrile]	100 to 300 nM	A (0%≤substrate protein remaining %≤80%)
CCc1cc2c(cc1N1CCN(CC3CCN(c4ccc5c(c4)C(=O)N(N4CCC(=O)NC4=O)C5=O)CC3)CC1)C(C)(C)c1[nH]c3cc(C#N)ccc3c1C2=O [GT-07321, 8-(4-((1-(2-(2,4-dioxotetrahydropyrimidin-1(2H)-yl)-1,3-dioxoisoindolin-5-yl)piperidin-4-yl)methyl)piperazin-1-yl)-9-ethyl-6,6-dimethyl-11-oxo-6,11-dihydro-5H-benzo[b]carbazole-3-carbonitrile]	50 to 100 nM	A (0%≤substrate protein remaining %≤80%)
CCc1cc2c(cc1N1CCN(CC3CCN(c4cccc5c4C(=O)N(N4CCC(=O)NC4=O)C5=O)CC3)CC1)C(C)(C)c1[nH]c3cc(C#N)ccc3c1C2=O [GT-07322, 8-(4-((1-(2-(2,4-dioxotetrahydropyrimidin-1(2H)-yl)-1,3-dioxoisoindolin-4-yl)piperidin-4-yl)methyl)piperazin-1-yl)-9-ethyl-6,6-dimethyl-11-oxo-6,11-dihydro-5H-benzo[b]carbazole-3-carbonitrile]	10 to 50 nM	A (0%≤substrate protein remaining %≤80%)
CCc1cc2c(cc1N1CCN(Cc3ccc4c(c3)CN(N3CCC(=O)NC3=O)C4=O)CC1)C(C)(C)c1[nH]c3cc(C#N)ccc3c1C2=O [GT-07340, 8-(4-((2-(2,4-dioxotetrahydropyrimidin-1(2H)-yl)-1-oxoisoindolin-5-yl)methyl)piperazin-1-yl)-9-ethyl-6,6-dimethyl-11-oxo-6,11-dihydro-5H-benzo[b]carbazole-3-carbonitrile]	10 to 50 nM	A (0%≤substrate protein remaining %≤80%)
COc1cc(N2CCN(Cc3ccc4c(c3)CN(N3CCC(=O)NC3=O)C4=O)CC2)ccc1Nc1ncc(Cl)c(Nc2ccccc2P(C)(C)=O)n1 [GT-07341, 1-(5-((4-(4-((5-chloro-4-((2-(dimethylphosphoryl)phenyl)amino)pyrimidin-2-yl)amino)-3-methoxyphenyl)piperazin-1-yl)methyl)-1-oxoisoindolin-2-yl)dihydropyrimidine-2,4 (1H,3H)-dione]	10 to 50 nM	A (0%≤substrate protein remaining %≤80%)
COc1cc(N2CCN(Cc3ccc4c(c3)C(=O)N(N3CCC(=O)NC3=O)C4=O)CC2)ccc1Nc1ncc(Cl)c(Nc2ccccc2P(C)(C)=O)n1 [GT-07342, 5-((4-(4-((5-chloro-4-((2-(dimethylphosphoryl)phenyl)amino)pyrimidin-2-yl)amino)-3-methoxyphenyl)piperazin-1-yl)methyl)-2-(2,4-dioxotetrahydropyrimidin-1(2H)-yl)isoindoline-1,3-dione]	100 to 300 nM	A (0%≤substrate protein remaining %≤80%)
COc1cc(N2CCN(CC3CCN(c4ccc5c(c4)C(=O)N(N4CCC(=O)NC4=O)C5=O)CC3)CC2)ccc1Nc1ncc(Cl)c(Nc2ccccc2P(C)(C)=O)n1 [GT-07343, 5-(4-((4-(4-((5-chloro-4-((2-(dimethylphosphoryl)phenyl)amino)pyrimidin-2-yl)amino)-3-methoxyphenyl)piperazin-1-yl)methyl)piperidin-1-yl)-2-(2,4-dioxotetrahydropyrimidin-1(2H)-yl)isoindoline-1,3-dione]	50 to 100 nM	A (0%≤substrate protein remaining %≤80%)
COc1cc(N2CCN(CC3CCN(c4cccc5c4C(=O)N(N4CCC(=O)NC4=O)C5=O)CC3)CC2)ccc1Nc1ncc(Cl)c(Nc2ccccc2P(C)(C)=O)n1 [GT-07344, 4-(4-((4-(4-((5-chloro-4-((2-(dimethylphosphoryl)phenyl)amino)pyrimidin-2-yl)amino)-3-methoxyphenyl)piperazin-1-yl)methyl)piperidin-1-yl)-2-(2,4-dioxotetrahydropyrimidin-1(2H)-yl)isoindoline-1,3-dione]	50 to 100 nM	A (0%≤substrate protein remaining %≤80%)
Cc1cc(Nc2ncc(Cl)c(Nc3ccccc3S(=O)(=O)C(C)C)n2)c(OC(C)C)cc1C1CCN(Cc2ccc3c(c2)CN(N2CCC(=O)NC2=O)C3=O)CC1 [GT-07362, 1-(5-((4-(4-((5-chloro-4-((2-(isopropylsulfonyl)phenyl)amino)pyrimidin-2-yl)amino)-5-isopropoxy-2-methylphenyl)piperidin-1-yl)methyl)-1-oxoisoindolin-2-yl)dihydropyrimidine-2,4 (1H,3H)-dione]	10 to 50 nM	A (0%≤substrate protein remaining %≤80%)
Cc1cc(Nc2ncc(Cl)c(Nc3ccccc3S(=O)(=O)C(C)C)n2)c(OC(C)C)cc1C1CCN(Cc2ccc3c(c2)C(=O)N(N2CCC(=O)NC2=O)C3=O)CC1 [GT-07363, 5-((4-(4-((5-chloro-4-((2-(isopropylsulfonyl)phenyl)amino)pyrimidin-2-yl)amino)-5-isopropoxy-2-methylphenyl)piperidin-1-yl)methyl)-2-(2,4-dioxotetrahydropyrimidin-1(2H)-yl)isoindoline-1,3-dione]	100 to 300 nM	A (0%≤substrate protein remaining %≤80%)
